Test results as given in ChEMBL document CHEMBL3400102, “Design, synthesis and biological evaluation of N-phenylthieno[2,3-d]pyrimidin-4-amines as inhibitors of FGFR1” (Bioorg Med Chem, 2015).

Test system: not listed separately
Assay: Antiproliferative activity against human KG1 cells after 72 hrs by MTT assay
Assay type: functional, cell-based
Settings: KG-1, 72 h
`Cc1ccc(-c2csc3ncnc(Nc4cccc(O)c4)c23)cc1` gave an IC50 of 33.9 µM. Compound `Oc1cccc(Nc2ncnc3scc(-c4ccc(Cl)cc4)c23)c1` has an IC50 of 50 µM. `Oc1cccc(Nc2ncnc3scc(-c4ccccc4)c23)c1` showed an IC50 of 26.2 µM. Work on `Oc1cccc(Nc2ncnc3sc(-c4ccccc4)cc23)c1` yielded an IC50 of 16.2 µM.

Biological target: Fibroblast growth factor receptor 1 (Homo sapiens, UniProt P11362)
Sequence (P11362 whole entry): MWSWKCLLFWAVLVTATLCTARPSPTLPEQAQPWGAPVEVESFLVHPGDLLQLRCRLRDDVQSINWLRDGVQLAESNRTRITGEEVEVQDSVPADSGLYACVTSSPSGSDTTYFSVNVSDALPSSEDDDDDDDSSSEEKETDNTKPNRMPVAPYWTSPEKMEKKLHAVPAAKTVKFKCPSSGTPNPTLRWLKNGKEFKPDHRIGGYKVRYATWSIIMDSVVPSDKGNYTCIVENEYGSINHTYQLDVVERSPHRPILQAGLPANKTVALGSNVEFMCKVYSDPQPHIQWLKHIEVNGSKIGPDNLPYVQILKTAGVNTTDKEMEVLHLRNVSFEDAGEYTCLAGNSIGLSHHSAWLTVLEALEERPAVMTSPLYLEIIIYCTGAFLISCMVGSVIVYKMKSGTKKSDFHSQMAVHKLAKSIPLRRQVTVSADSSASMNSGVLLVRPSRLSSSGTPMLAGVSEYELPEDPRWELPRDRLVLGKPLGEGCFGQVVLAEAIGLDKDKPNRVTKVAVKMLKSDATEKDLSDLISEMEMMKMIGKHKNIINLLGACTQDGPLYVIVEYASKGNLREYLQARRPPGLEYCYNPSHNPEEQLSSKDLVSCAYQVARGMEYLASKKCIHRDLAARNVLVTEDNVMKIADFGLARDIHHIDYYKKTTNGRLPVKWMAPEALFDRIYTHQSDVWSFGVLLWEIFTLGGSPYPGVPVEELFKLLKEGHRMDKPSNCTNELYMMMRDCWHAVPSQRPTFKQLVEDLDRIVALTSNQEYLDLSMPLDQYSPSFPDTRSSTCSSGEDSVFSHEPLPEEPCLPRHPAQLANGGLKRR
Assay: Inhibition of FGFR1 (unknown origin) using KKKSPGEYVNIEFG peptide substrate assessed as incorporation of [32P] into peptide by scintillation counting analysis
Settings: not given
With `CCOC(=O)c1sc2ncnc(Nc3cccc(C(=O)O)c3)c2c1C` the IC50 was > 30 µM. For `Cc1ccc(-c2csc3ncnc(Nc4ccc(C(=O)O)cc4)c23)cc1`, the IC50 was > 30 µM. Compound `CCOc1ccc(-c2csc3ncnc(Nc4cccc(O)c4)c23)cc1` has an IC50 of 12.5 µM. `Cc1cc2c(Nc3ccc(O)cc3)ncnc2s1` gave an IC50 of 5.6 µM. For `Oc1ccc(Nc2ncnc3scc(-c4ccccc4)c23)cc1`, the IC50 was 1.66 µM. With `Fc1ccc(Nc2ncnc3sc4c(c23)CCCC4)cc1` the IC50 was 3.2 µM. For `Fc1ccc(Nc2ncnc3scc(-c4ccc(Cl)cc4)c23)cc1`, the IC50 was > 30 µM. In the case of `CCOC(=O)c1sc2ncnc(Nc3ccc(F)cc3)c2c1C`, the IC50 is reported as > 30 µM. Work on `Fc1ccccc1Nc1ncnc2sc3c(c12)CCCCC3` yielded an IC50 of 4.3 µM. `Fc1ccccc1Nc1ncnc2sc(-c3ccccc3)cc12` showed an IC50 of 18.2 µM. With `Fc1ccccc1Nc1ncnc2scc(-c3ccccc3)c12` the IC50 was > 30 µM. With `Fc1ccc(Nc2ncnc3scc(-c4ccccc4)c23)cc1` the IC50 was 6.3 µM. `Fc1ccc(Nc2ncnc3sc(-c4ccccc4)cc23)cc1` gave an IC50 of 4.3 µM. For `Cc1ccc(-c2csc3ncnc(Nc4ccc(F)cc4)c23)cc1`, the IC50 was > 30 µM. Work on `Cc1ccc(-c2csc3ncnc(Nc4cccc(C(=O)O)c4)c23)cc1` yielded an IC50 of 11 µM. For `Fc1ccc(Nc2ncnc3sc4c(c23)CCCCC4)cc1Cl`, the IC50 was 1.6 µM. For `CCOC(=O)c1sc2ncnc(Nc3ccc(OC)cc3)c2c1C`, the IC50 was > 30 µM. `COc1ccc(Nc2ncnc3scc(-c4ccccc4)c23)cc1` gave an IC50 of 3 µM. `COc1ccc(Nc2ncnc3scc(-c4ccc(C)cc4)c23)cc1` gave an IC50 of 5 µM. In the case of `CCOC(=O)c1sc2ncnc(Nc3cccc(OC)c3)c2c1C`, the IC50 is reported as > 30 µM. In the case of `COc1cccc(Nc2ncnc3scc(-c4ccc(Cl)cc4)c23)c1`, the IC50 is reported as > 30 µM. `COc1cccc(Nc2ncnc3scc(-c4ccccc4)c23)c1` showed an IC50 of 2.5 µM. For `CCOc1ccc(-c2csc3ncnc(Nc4ccc(O)cc4)c23)cc1`, the IC50 was > 30 µM. `Cc1nc(Nc2ccc(O)cc2)c2cc(-c3ccccc3)sc2n1` showed an IC50 of 5 µM. `Cc1sc2ncnc(Nc3ccc(O)cc3)c2c1-c1ccccc1` showed an IC50 of 1.25 µM. Compound `Oc1ccc(Nc2ncnc3sc(-c4ccccc4)cc23)cc1` has an IC50 of 1.2 µM. Compound `Oc1ccc(Nc2ncnc3scc(-c4ccc(Cl)cc4)c23)cc1` has an IC50 of 3 µM. `Cc1ccc(-c2csc3ncnc(Nc4cccc(O)c4)c23)cc1` showed an IC50 of 0.7 µM. `Oc1cccc(Nc2ncnc3scc(-c4ccc(Cl)cc4)c23)c1` showed an IC50 of 0.5 µM. `CCOC(=O)c1sc2ncnc(Nc3cccc(O)c3)c2c1C` showed an IC50 of 0.5 µM. `Oc1cccc(Nc2ncnc3scc(-c4ccccc4)c23)c1` gave an IC50 of 0.18 µM. With `Oc1cccc(Nc2ncnc3sc(-c4ccccc4)cc23)c1` the IC50 was 0.16 µM.
